The conditions of series [1]: further phase II clinical trial, allergic rhinitis; cited from earlier work.
The conditions of series [2]: dosed intranasally, phase I/II, allergic rhinitis; cited from earlier work.
Another series relates to B lymphoma (BKS-2). As to conditions: murine BKS-2 B lymphoma model; cited from earlier work.
For series [3] the following is noted: cited from earlier work.
The next series deals with Ramos B cells. The series can be described thus: Ramos pErk assay (anti-IgM stimulated B cells, pErk MSD). The class given is cell-based. As to conditions: Homo sapiens, Ramos, anti-IgM 5 μg/ml, pErk readout, read-out: average pIC50 (converted). As to the method:
Ramos B cells (human B cells of Burkitt's Lymphoma) are stimulated using anti-IgM. […] The subsequent autophosphorylation of Syk leads to initiation of a signalling cascade resulting in B cell activation via the Erk MAP Kinase pathway. As a result Erk is phosphorylated and following cell lysis is detected by an immune capture assay.
Cells were plated at a density of 2.5×10^5/well in a volume of 25 μl assay medium (RPMI containing 10% heat inactivated foetal calf serum, 1% L-glutamine) in 96 v-well polypropylene plates. 25 μl appropriately diluted compound solution was added and the plate incubated for 30 min at 37° C. with 5% CO2. Cells were stimulated with 5 μl Fab′2 fragments of goat anti-human IgM (5 μg/ml final) for 7 min at 37° C. Cells are lysed by the addition of 55 μL 2×RIPA lysis buffer for 2 h at 4° C. Lysate may be frozen at this point at −80° C.
50 μl cell lysate was transferred to a 96 well MSD plate coated with anti-pErk1/2 (Thr/Tyr: 202/204; 185/187) capture antibody and incubated for 16 hours at 4° C. or 3 hours at room temperature. The plate was washed and an anti-pErk detection antibody added (25 μl/well) for 1 hour at room temperature. This was removed, 150 μL MSD read buffer added and the resultant electrochemiluminescence signal measured.
Compound was prepared as a 10 mM stock in DMSO and a dilution series prepared in DMSO using 9 successive 5-fold dilutions. This dilution series was diluted a further 1:100 with assay medium to give the final concentration range to be tested of 5×10^−5 to 2.56×10^−11M. Compound dilutions were prepared using the Biomek 2000 and Biomek Nx automated robotic pipetting systems.

Counter-ions that a name gives are not always drawn.

With `Oc1cccc(Nc2ncc(F)c(Nc3cccc(O)c3)n2)c1` [Example R112], the efficacy versus placebo entry in series [1] is “lack of efficacy versus placebo”. Besides, in series [2], the PGD2 result is given as “statistically significant decrease” and the clinical safety entry is “safe across a range of indicators”.

In the case of `COc1cc(/C=C/C(=O)CC(=O)/C=C/c2ccc(O)c(OC)c2)ccc1O` [curcumin], the “tumour burden as measured by the total splenocyte number” value in the series on B lymphoma (BKS-2) was “significant reduction of tumour burden”.

For `COc1cc(Nc2ncc(F)c(Nc3ccc4c(n3)N(COP(=O)(O)O)C(=O)C(C)(C)O4)n2)cc(OC)c1OC` [Example R788, fostamatinib disodium], the therapeutic effect entry in series [3] (patients with DLBCL and CLL/SLL) is “therapeutic benefit”. Moreover, the tolerability result in series [3] (patients with relapsed or refractory B-Cell NHL) is recorded as “well-tolerated”.

Consider `CC(=O)c1ccc(OCc2cc(C)ccn2)c(-c2ccc3c(c2)CCNCC3)c1` [Example 24, 1-[4-{[(4-methyl-2-pyridinyl)methyl]oxy}-3-(2,3,4,5-tetrahydro-1H-3-benzazepin-7-yl)phenyl]ethanone, trifluoroacetate], for which the IC50 in the series with Ramos B cells was 0.158 to 6.31 µM.

Source of the values: US20140005177A1, “PYRIDINYL- AND PYRAZINYL-METHYLOXY-ARYL DERIVATIVES USEFUL AS INHIBITORS OF SPLEEN TYROSINE KINASE (SYK)” (GLAXO GROUP LIMITED, priority 2011, published 2014).
